Earlier results, collected in patent publication US20170001953A1, “FUMARATE COMPOUNDS, PHARMACEUTICAL COMPOSITIONS THEREOF, AND METHODS OF USE” (priority 2015, published 2017).

Q: Which aqueous solubility does the source give for COC(=O)/C=C/C(=O)OC [DMF, dimethylfumarate] here?
A: poor
